From patent US20260049078A1, “DIFLUORO- AND TRIFLUORO-ACETYL HYDRAZIDES AS SELECTIVE HDAC6 INHIBITORS” (ITALFARMACO S.P.A., priority 2022, published 2026)

What was measured:
recombinant human HDAC6 = recombinant human HDAC6 (Homo sapiens (Human), UniProt Q9UBN7); experiment: Enzyme inhibitory activity assay on HDAC6; format: biochemical; conditions: 30 minutes preincubation at 25° C.
Protocol: (§1) For each test compound, 100× concentrated DMSO solutions at 8 doses were prepared and then diluted in assay buffer (25 mM Tris-HCl, pH 8, 130 mM NaCl, 0.05% Tween-20, 10% Glycerol) to obtain 5× concentrated solutions in relation to the final concentrations (typical final concentration range—6.4-200000 nM or 0.18-50000 nM, final DMSO content—1%). Then 10 μL solution of each test compound concentration were placed on a 96-well plate in triplicate and 15 μL of 3.33× concentrated enzyme solution in the assay buffer containing 3.33× concentrated BSA (final BSA concentration 1 mg/mL) and, in case of HDAC6, 3.33× concentrated TCEP (final TCEP concentration—200 μM) were added to each well. After a period of preincubation at 25° C. (30 minutes for HDAC6 and 120 minutes for HDAC1), 25 μL of solution containing the substrate were added. As substrate, FLUOR DE LYS® deacetylase substrate (Enzo Life Sciences, cat: BML-KI104, FdL), FLUOR DE LYS®-Green substrate (Enzo Life Sciences, cat: BML-KI572, FdL_G) or Boc-Lys(Tfa)-AMC (Bachem, cat: 4060676.005, Tfal)—2× concentrated solution in assay buffer were used. Following a reaction period (30 minutes at 25° C.), 50 μL of the development solution consisting of concentrate FLUOR DE LYS® developer I (Enzo Life Sciences, ca: BML-KI105), diluted 200 times in buffer (50 mM Tris-HCl, pH 8, 137 mM NaCl, 2.7 mM KCl, 1 mM MgCl2) plus 2 μM TSA was added and, after 25 minutes at room temperature in the dark, using the Victor 1420 Multilabel Counter Perkin Elmer Wallac instrument, the fluorescence reading was carried out (excitation/emission: 485/535 nM—Fluor de Lys Green, 355/460 nM—Tfal, Fluor de Lys).
(§2) Enzymatic activity on recombinant human HDAC6 and HDAC1 was evaluated (Table 2) for each synthesized compound.

recombinant human HDAC1 = recombinant human HDAC1 (Homo sapiens (Human), UniProt Q13547); experiment: Enzyme inhibitory activity assay on HDAC1; format: biochemical; conditions: 120 minutes preincubation at 25° C.
Protocol: as §1, §2

[1] = test system: human B cell precursor leukemia 697; experiment: In vitro α-tubulin acetylation in 697 cell line; format: cell-based; conditions: Homo sapiens, B-cell, 16 h; read-out: TubAc 697 cells EC50
Protocol: The in vitro α-tubulin acetylation was evaluated on human B cell precursor leukemia 697.
The 697 cells were maintained in RPMI Medium 1640 (Gibco, cat: 21875-034) supplemented with 10 mM HEPES (Gibco, cat: 15630-080), Pen-Strep (Penicillin 100 U/ml, Streptomycin 100 μg/ml, Gibco, cat: 15140-122) and 10% fetal bovine serum (Gibco, cat: 10270-106).
The cells were plated in 12-well plates (Costar, cat: 3512) at the density of 5.5×10^5 cells/ml.
Serial dilutions of test compounds in DMSO were prepared using 20 mM stock solutions to obtain 8 doses 200× concentrated in respect to final doses (2.7-100000 nM). Then the DMSO solutions were diluted 10× in culture medium to obtain 20× concentrated solutions which were used for cells treatment (125 μl of medium solutions were added to 2.375 ml of cells suspension). The final DMSO content was set as 0.5%. The plates were incubated at 37° C., 5% CO2 for 16 hours.
At the end of the incubation period, the cells were harvested and centrifuged for 5 minutes at 200×g and washed with 0.9% NaCl at 4° C. The resulting pellet was treated for 30 minutes at 4° C. with 100 μl Complete Lysis-M buffer containing protease inhibitors (Complete Lysis-M Roche+Complete Tablets, Mini Easypack, cat: 4719956001) and phosphatase inhibitor cocktails (PhosStop Easypack, Roche, cat: 4906837001) and then centrifuged 10 minutes at 18213×g. The protein concentration in each supernatant was determined using BCA Protein Assay Kit (Pierce, cat: 23227). The samples were diluted in PBS 1× to obtain 2 μg/ml concentration and coated in MaxiSorp 96-well plates (Nunc, cat: 442404). The plates were incubated overnight at room temperature.
Plates were washed twice with Wash Buffer (PBS 1×+0.005% tween 20) and saturated for 1 hour at room temperature with 300 μL of 1×PBS containing 10% FBS. After washing twice with Wash Buffer, the plates were incubated for 2 hours at room temperature in the presence of 100 μl/well either anti-acetylated-α-tubulin antibody (Monoclonal Anti-Tubulin, Acetylated antibody produced in mouse, Sigma-Aldrich, cat: T6793) or total anti-α-tubulin antibody (Monoclonal Anti-α-Tubulin produced in mouse, Sigma-Aldrich, cat: T6074) diluted 1:1000 in 1×PBS containing 10% FBS. Following 5 washing cycles with Wash Buffer the secondary antibody conjugated with the enzyme HRP (Goat anti-Mouse IgG, IgM, IgA (H+L), stock concentration 0.5 mg/ml, Thermo Fisher Scientific, cat: A10668), diluted 1:1000 in 1×PBS+10% FBS was added at the volume of 100 μl/well. After two hours of incubation at room temperature the plates were washed 4 times with Wash Buffer, then 100 μl/well of TMB substrate (TMB substrate kit, Thermo Fisher Scientific, cat: 34021) was added for 10 minutes at room temperature in the dark. The reaction was stopped by adding 50 μl of 2M H2SO4. The plates were read in BioTek Synergy H1 multimode microplate reader at a wavelength of 450 nm.
The measured absorbance was corrected by subtracting the mean of blank values (samples without the primary antibody). The absorbance ratios of acetyl to total tubulin assays were calculated and normalized to the reference compound (positive control) 4 parameter logistic curve, where 0% is the fitted bottom and 100% is the fitted top of the curve. The results are expressed as relative EC50.

HDAC6 = experiment: Kinetic of prodrug disappearing when incubated with HDAC6 (LC-HRMS); format: biochemical; conditions: HDAC6 1 μM, 5 μM compound, 25° C.; for half-life at 5 µM: HDAC6 enzyme in assay buffer, read-out: T1/2 of prodrug disappearing
Protocol: The LC-HRMS analysis was carried out using a Vanquish Flex UHPLC (Thermo Fisher Scientific) and a high-resolution mass spectrometer Orbitrap QExactive Focus (Thermo Fisher Scientific), equipped with a Heated Electrospray Ionization, operated in positive mode. A Full Scan analysis was set in the m/z range 50-500 amu. A XSelect HSS T3 50×2.1 mm, 2.5 μm chromatographic column (Waters) was used. Mobile phase A consisted of 0.1% formic acid in water and mobile phase B in 0.1% formic acid in acetonitrile. The flow rate was set to 0.5 mL/min, with a gradient program from 3 to 20% B in 3 minutes.

Sequence of recombinant human HDAC6 (Q9UBN7 whole entry): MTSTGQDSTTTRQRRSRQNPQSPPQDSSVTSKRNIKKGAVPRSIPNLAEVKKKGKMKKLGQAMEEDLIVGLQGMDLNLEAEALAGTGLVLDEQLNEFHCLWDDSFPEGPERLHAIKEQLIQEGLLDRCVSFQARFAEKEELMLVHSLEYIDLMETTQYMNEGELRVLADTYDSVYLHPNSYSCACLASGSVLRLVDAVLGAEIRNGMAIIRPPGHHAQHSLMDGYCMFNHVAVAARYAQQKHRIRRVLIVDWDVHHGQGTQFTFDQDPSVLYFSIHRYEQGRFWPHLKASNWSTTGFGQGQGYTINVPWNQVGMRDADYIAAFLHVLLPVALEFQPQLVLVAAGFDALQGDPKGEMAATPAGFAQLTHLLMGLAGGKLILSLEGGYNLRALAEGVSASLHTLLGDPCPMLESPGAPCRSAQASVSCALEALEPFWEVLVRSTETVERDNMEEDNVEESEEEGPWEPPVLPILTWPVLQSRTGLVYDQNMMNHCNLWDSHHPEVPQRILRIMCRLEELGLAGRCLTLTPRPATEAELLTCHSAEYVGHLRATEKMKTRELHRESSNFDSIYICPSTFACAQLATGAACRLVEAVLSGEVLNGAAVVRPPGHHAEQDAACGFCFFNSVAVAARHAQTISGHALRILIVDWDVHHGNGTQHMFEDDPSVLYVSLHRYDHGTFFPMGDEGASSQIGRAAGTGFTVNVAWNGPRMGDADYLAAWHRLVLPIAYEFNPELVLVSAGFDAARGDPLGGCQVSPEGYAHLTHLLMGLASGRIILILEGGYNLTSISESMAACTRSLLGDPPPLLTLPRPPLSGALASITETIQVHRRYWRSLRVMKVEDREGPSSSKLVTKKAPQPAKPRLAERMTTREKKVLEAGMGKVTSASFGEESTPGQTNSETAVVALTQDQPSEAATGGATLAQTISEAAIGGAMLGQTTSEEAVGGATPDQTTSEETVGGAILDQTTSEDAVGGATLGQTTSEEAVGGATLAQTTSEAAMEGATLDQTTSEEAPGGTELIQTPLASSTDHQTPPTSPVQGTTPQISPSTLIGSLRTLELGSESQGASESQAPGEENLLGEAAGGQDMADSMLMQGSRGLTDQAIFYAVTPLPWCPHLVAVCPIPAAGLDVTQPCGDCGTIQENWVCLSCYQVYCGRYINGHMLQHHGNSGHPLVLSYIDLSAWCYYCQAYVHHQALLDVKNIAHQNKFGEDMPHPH
Sequence of recombinant human HDAC1 (Q13547 whole entry): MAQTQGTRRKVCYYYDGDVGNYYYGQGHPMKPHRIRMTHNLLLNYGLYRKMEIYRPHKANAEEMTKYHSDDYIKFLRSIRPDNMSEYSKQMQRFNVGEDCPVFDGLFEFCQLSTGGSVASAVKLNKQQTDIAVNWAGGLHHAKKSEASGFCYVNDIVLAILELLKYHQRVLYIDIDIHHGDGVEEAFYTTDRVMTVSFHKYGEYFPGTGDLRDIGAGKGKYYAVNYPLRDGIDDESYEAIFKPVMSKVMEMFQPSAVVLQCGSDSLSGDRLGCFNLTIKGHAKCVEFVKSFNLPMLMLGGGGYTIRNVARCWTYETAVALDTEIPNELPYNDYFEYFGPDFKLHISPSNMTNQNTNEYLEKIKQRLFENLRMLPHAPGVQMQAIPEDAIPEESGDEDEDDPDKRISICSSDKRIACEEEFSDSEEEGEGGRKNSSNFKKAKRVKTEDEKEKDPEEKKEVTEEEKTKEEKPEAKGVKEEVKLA

IC50 (recombinant human HDAC6) [nM]	IC50 (recombinant human HDAC1) [nM]	EC50 [1] [nM]	half-life at 5 µM (HDAC6) [min]	Compound	also measured
20	> 100000	167	–	FC(F)c1nnc(-c2ccc(Cn3cc(-c4cccc5[nH]ncc45)nn3)nc2)o1 [Compound 34-A]	–
54	> 100000	167	–	Fc1cc(-c2nnc(C(F)F)o2)ccc1Cn1cc(-c2cccc3[nH]ccc23)nn1 [Compound 36-A]	–
44	> 100000	849	–	Fc1cc(-c2nnc(C(F)F)o2)cnc1Cn1cc(-c2cccc3[nH]ccc23)nn1 [Compound 40-A]	–
–	–	–	40.5	Nc1ccc(-c2cn(Cc3c(F)cc(-c4nnc(C(F)(F)F)o4)cc3F)nn2)cn1 [Compound 42-A]	–
–	–	–	23.1	Nc1ccc(-c2cn(Cc3ccc(-c4nnc(C(F)(F)F)o4)cc3F)nn2)cn1 [Compound 43-A]	–
–	–	–	11.3	Nc1ccc(-c2cn(Cc3ccc(-c4nnc(C(F)(F)F)o4)c(F)c3)nn2)cn1 [Compound 44-A]	–
26	> 100000	664	113	Nc1ccc(-c2cn(Cc3ccc(-c4nnc(C(F)F)o4)cc3)nn2)cn1 [Compound 45-A]	percentage of compound concentration (prodrug remaining) (HDAC6; time 0 min): 100.00%; percentage of compound concentration (prodrug remaining) (HDAC6; time 30 min): 79.9%; percentage of compound concentration (prodrug remaining) (HDAC6; time 60 min): 73.7%; percentage of compound concentration (prodrug remaining) (HDAC6; time 120 min): 47.8%; percentage of compound concentration (prodrug remaining) (HDAC6; time 240 min): 22.6%; percentage of compound concentration (prodrug remaining) (HDAC6; time 360 min): 11.6%; percentage of compound concentration (prodrug remaining) (HDAC6; time 480 min): 5.2%
–	> 100000	788	22.9	Nc1ccc(-c2cn(Cc3c(F)cc(-c4nnc(C(F)F)o4)cc3F)nn2)cn1 [Compound 46-A]	percentage of compound concentration (prodrug remaining) (HDAC6; time 0 min): 100.00%; percentage of compound concentration (prodrug remaining) (HDAC6; time 30 min): 42.4%; percentage of compound concentration (prodrug remaining) (HDAC6; time 60 min): 17.4%; percentage of compound concentration (prodrug remaining) (HDAC6; time 120 min): 2.7%; percentage of compound concentration (prodrug remaining) (HDAC6; time 240 min): 0.0%; percentage of compound concentration (prodrug remaining) (HDAC6; time 360 min): 0.0%; percentage of compound concentration (prodrug remaining) (HDAC6; time 480 min): 0.0%
–	> 100000	871	29.3	Nc1ccc(-c2cn(Cc3ccc(-c4nnc(C(F)F)o4)cc3F)nn2)cn1 [Compound 47-A]	percentage of compound concentration (prodrug remaining) (HDAC6; time 0 min): 100.00%; percentage of compound concentration (prodrug remaining) (HDAC6; time 30 min): 53.6%; percentage of compound concentration (prodrug remaining) (HDAC6; time 60 min): 29.7%; percentage of compound concentration (prodrug remaining) (HDAC6; time 120 min): 7.4%; percentage of compound concentration (prodrug remaining) (HDAC6; time 240 min): 0.4%; percentage of compound concentration (prodrug remaining) (HDAC6; time 360 min): 0.0%; percentage of compound concentration (prodrug remaining) (HDAC6; time 480 min): 0.0%
–	–	29	–	Nc1ccc(-c2cn(Cc3ccc(-c4nnc(C(F)F)o4)s3)nn2)cn1 [Compound 49-A]	–

More lines, now with the values behind:

Compound	IC50 (recombinant human HDAC6) [nM]	IC50 (recombinant human HDAC1) [nM]	EC50 [1] [nM]	half-life at 5 µM (HDAC6) [min]	also measured
Cc1ccc(-c2cn(Cc3ccc(-c4nnc(C(F)F)o4)cn3)nn2)cc1 [Compound 8-A]	65	> 100000	419	–	–
Cc1cccc(-c2cn(Cc3ccc(-c4nnc(C(F)F)o4)cn3)nn2)c1 [Compound 9-A]	40	> 100000	385	–	–
CC(=O)Nc1cccc(-c2cn(Cc3ccc(-c4nnc(C(F)F)o4)cc3F)nn2)c1 [Compound 12-A]	57	> 100000	346	–	–
Fc1cc(-c2nnc(C(F)F)o2)cnc1Cn1cc(-c2ccccn2)nn1 [Compound 15-A]	100	> 100000	–	–	–
FC(F)c1nnc(-c2ccc(Cn3nnc(-c4ccccc4)n3)nc2)o1 [Compound 16-A]	40	> 100000	1090	–	–
FC(F)c1nnc(-c2ccc(Cn3nnc(-c4cccs4)n3)nc2)o1 [Compound 17-A]	41	> 100000	648	–	–
Fc1cccc(-c2cn(Cc3ccc(-c4nnc(C(F)F)o4)cn3)nn2)c1 [Compound 18-A]	56	> 100000	582	–	–
FC(F)c1nnc(-c2ccc(Cn3cc(-c4cccs4)nn3)nc2)o1 [Compound 19-A]	31	> 100000	579	–	–
FC(F)c1nnc(-c2ccc(Cn3cc(-c4ccc5[nH]ccc5c4)nn3)nc2)o1 [Compound 27-A]	15	> 100000	119	–	–
CC(c1ccc(-c2nnc(C(F)F)o2)cc1F)n1cc(-c2ccc3nc(N)sc3c2)nn1 (stereo not drawn) [Compound 30-A, 6-(1-(1-(4-(5-(difluoromethyl)-1,3,4-oxadiazol-2-yl)-2-fluorophenyl)ethyl)-1H-1,2,3-triazol-4-yl)benzo[d]thiazol-2-amine]	–	–	1390	–	–
Nc1nc2ccc(-c3cn(Cc4ccc(-c5nnc(C(F)F)o5)c(Cl)c4)nn3)cc2s1 [Compound 31-A]	–	–	–	129	–
